Experiments:
[1] = Open-label study of immediate-release ruxolitinib phosphate tablets in MF patients, pharmacokinetics; type: in vivo, human; settings: dose from 10 mg to 100 mg
Description: This was an open-label study exploring the safety, tolerability, and efficacy of ruxolitinib, administered orally to patients with primary myelofibrosis (PMF) and post polycythemia vera/essential thrombocythemia myelofibrosis (Post-PV/ET MF). The study was comprised of 3 parts: Part 1-dose escalation and expansion, bid dosing, Part 2-alternative dosing schedules (A, B and C), and Part 3-three independent patient groups (Group I, II and III). Eight dose regimens were evaluated in 3 parts. The Part 1 evaluated two dose levels of 25 mg bid and 50 mg bid, Part 2 studied five dose regimens of 10 mg bid, 25 mg bid, 25 mg qd, 50 mg qd and 100 mg qd and Part 3 assessed six dose regimens of 10 mg bid, 15 mg bid, 25 mg bid, 50 mg qd, 100 mg qd and 200 mg qd. A total of 154 subjects were enrolled; 32 subjects enrolled in Part 1, 29 subjects in Part 2 and 93 subjects in Part 3. See Table 4b (qd=once per day; bid=twice per day).
In Part 1, the pharmacokinetic blood samples were collected at pre-dose and 0.5, 1, 1.5, 2, 4, 6 and 9 hours post-dose on Days 1 and 15 of Cycle 1 and at pre-dose on Day 1 of Cycles 2 and 3, using lavender top (K3EDTA) Vacutainer® tubes. […]
Plasma samples were shipped to Incyte Corporation and assayed by a validated, GLP, LC/MS/MS method with a linear range of 1 to 1000 nM and a limit of quantification of 1 nM. […]

[2] = system: patients with intermediate-2 or high risk myelofibrosis; settings: cited from earlier work
Myelofibrosis patients = settings: COMFORT-II, 48 weeks (primary end point); cited from earlier work
[3] = cited from earlier work
[4] = system: patients with intermediate-2 or high risk myelofibrosis; settings: cited from earlier work; remark: listed apart in the source
[5] = COMFORT I immediate-release, n 129
[6] = COMFORT I immediate-release, n 139
[7] = COMFORT I immediate-release, n 140
[8] = COMFORT I immediate-release, n 148
[9] = COMFORT I, immediate release, N = 155, maximum severity
[10] = COMFORT I, immediate release, N = 155, treatment-related, maximum severity
[11] = COMFORT I, immediate release, N = 155, treatment-related
[12] = COMFORT I, immediate release, N = 155
[13] = COMFORT I, mean exposure approximately 242 days
[14] = COMFORT-I Study (active), Week 12, mean total daily dose 30.4 mg, mean ± SD

## N#CC[C@H](C1CCCC1)n1cc(-c2ncnc3[nH]ccc23)cn1 [Ruxolitinib, (3R)-3-cyclopentyl-3-[4-(7H-pyrrolo[2,3-d]pyrimidin-4-yl)pyrazol-1-yl]propanenitrile]
[1]
  dose proportionality of mean Cmax and AUC: increased approximately linearly proportional to dose
[2]; [5]
  Total Symptom Score, Percent Change from Baseline To Week 24, Max: 108.3
  Total Symptom Score, Percent Change from Baseline To Week 24, Mean: −46.1
  Total Symptom Score, Percent Change from Baseline To Week 24, Median: −56.2
  Total Symptom Score, Percent Change from Baseline To Week 24, Min: −100.0
[2]; [6]
  Spleen Volume, Percent Change from Baseline To Week 24, Max: 25.1%
  Spleen Volume, Percent Change from Baseline To Week 24, Mean: −31.6%
  Spleen Volume, Percent Change from Baseline To Week 24, Median: −33.0%
  Spleen Volume, Percent Change from Baseline To Week 24, Min: −75.9%
[2]; [7]
  Total Symptom Score, Percent Change from Baseline To Week 16, Max: 292.5
  Total Symptom Score, Percent Change from Baseline To Week 16, Mean: −40.5
  Total Symptom Score, Percent Change from Baseline To Week 16, Median: −51.1
  Total Symptom Score, Percent Change from Baseline To Week 16, Min: −100.0
[2]; [8]
  Spleen Volume, Percent Change from Baseline To Week 12, Max: 3.8%
  Spleen Volume, Percent Change from Baseline To Week 12, Mean: −32.0%
  Spleen Volume, Percent Change from Baseline To Week 12, Median: −31.7%
  Spleen Volume, Percent Change from Baseline To Week 12, Min: −74.4%
[2]; COMFORT-I, baseline to week 24
  proportion of patients with a reduction of 50% or more in the total symptom score: 45.9%
[2]; COMFORT-I, week 24 (primary end point)
  proportion of patients with a reduction of 35% or more in spleen volume: 41.9%
Myelofibrosis patients
  patients with at least a 35% reduction in spleen volume from baseline: 28%
[3]; human, immediate-release, Shi et al.
  half-life: about 3 hours
[3]; oral
  Bioavailability: 70-80%
[4]; [9]
  Number of Subjects With Any Adverse Events, FT (fatal): 9
  Number of Subjects With Any Adverse Events, LT (life threatening): 9
  Number of Subjects With Any Adverse Events, Mi (mild): 20
  Number of Subjects With Any Adverse Events, Mo (moderate): 58
  Number of Subjects With Any Adverse Events, Se (severe): 55
[4]; [10]
  Number of Subjects with Anaemia, FT (fatal): 0
  Number of Subjects with Anaemia, LT (life threatening): 8
  Number of Subjects with Anaemia, Mi (mild): 4
  Number of Subjects with Anaemia, Mo (moderate): 20
  Number of Subjects with Anaemia, Se (severe): 16
  Number of Subjects with Blood and lymphatic system disorders, FT (fatal): 0
  Number of Subjects with Blood and lymphatic system disorders, LT (life threatening): 10
  Number of Subjects with Blood and lymphatic system disorders, Mi (mild): 20
  Number of Subjects with Blood and lymphatic system disorders, Mo (moderate): 28
  Number of Subjects with Blood and lymphatic system disorders, Se (severe): 27
  Number of Subjects with Thrombocytopenia, FT (fatal): 0
  Number of Subjects with Thrombocytopenia, LT (life threatening): 2
  Number of Subjects with Thrombocytopenia, Mi (mild): 21
  Number of Subjects with Thrombocytopenia, Mo (moderate): 19
  Number of Subjects with Thrombocytopenia, Se (severe): 11
[4]; [11]
  % of Subjects with Anaemia, Any severity: 31.0%
  % of Subjects with Blood and lymphatic system disorders, Any severity: 54.8%
  % of Subjects with Thrombocytopenia, Any severity: 34.2%
  Number of Subjects with Anaemia, Any severity: 48
  Number of Subjects with Blood and lymphatic system disorders, Any severity: 85
  Number of Subjects with Thrombocytopenia, Any severity: 53
[4]; [12]
  % of Subjects With Any Adverse Events, Any severity: 97.4%
  Number of Subjects With Any Adverse Events, Any severity: 151
[4]; [13]
  Percent of Patients with All ≥ Grade 3 Adverse Events: 47.1%
  Percent of Patients with Grade 3 or Higher Anemia: 15.5%
  Percent of Patients with Grade 3 or Higher Neutropenia: 1.3%
  Percent of Patients with Grade 3 or Higher Thrombocytopenia: 8.4%
[4]; [14]
  Mean change from baseline Hgb: -13.2 ± 15.5 g/L
  Mean change from baseline platelet count: −131 ± 143 ×10^9/L
